Test results: paper PMC7279038, “Antioxidant and Neuroprotective Effects Induced by Cannabidiol and Cannabigerol in Rat CTX-TNA2 Astrocytes and Isolated Cortexes” (International Journal of Molecular Sciences, 2020)

How the values were obtained:
[1] = target: T1, AChE (acetylcholinesterase) (Electrophorus electricus, UniProt O42275); test: AChE inhibition, colorimetric cholinesterase assay; assay type: biochemical, electric eel; conditions: mean ± S.D., n = 3
T1 construct: purchased Sigma Aldrich S.r.l., Milan, Italy Type-VI-S (catalogue number not given)

[2] = test system: isolated rat cortexes, 3-HK; test: K+ 60 mM neurotoxicity paradigm, 3-HK level; conditions: for effect on K+ 60 mM-induced increase in 3-HK level: CBD 1000 nM, CBG 1 nM
Method: (§1) Sprague–Dawley rats (200–250 g) were sacrificed by CO2 inhalation (Italian Health Ministry authorization N. F4738.N.XTQ, delivered on 11th November 2018) and isolated prefrontal cortex specimens were immediately explanted and incubated in thermostatic shaking bath at 37 °C for 1 h (incubation period), in Krebs–Ringer buffer at the following K^+ concentrations:
(§2) Cortexes were stimulated with CBD (1000 nM) and […]. Afterwards, specimens were homogenized in perchloric acid solution (0.05 M) for the extraction and quantification of nitrites, via the aforementioned colorimetric Griess assay, and serotonin (5-HT), 5-hydroxyindoleacetic (5HIIA),3-hydroxykinurenine (3-HK) and kinurenic acid (KA) (ng/mg wet tissue) via high performance liquid chromatography analysis. Additionally, an untargeted proteomic analysis was carried out on the cortex homogenate. The analytical protocols for 5-HT, 5HIIA, 3-HK, KA and protein level determinations are described below. The analyses were conducted in triplicate and in independent facilities with blind modality.
Tissue 3-HK, 5-HT and 5HIIA levels were analyzed through an HPLC apparatus consisting of a Jasco (Tokyo, Japan) PU-2080 chromatographic pump and an ESA (Chelmsford, MA, USA) Coulochem III coulometric detector, equipped with a microdialysis cell (ESA-5014b), a porous graphite working electrode and a solid state palladium reference electrode. The analytical conditions for identification and quantification were selected according to previous studies. Specifically, the analytical cell was set at −0.150 V for detector 1 and at +0.300 V for detector 2, with a range of 100 nA. The chromatograms were monitored at the analytical detector 2. […] Sample concentrations were calculated by linear regression curve (y = bx + m) obtained with standard. Neither internal nor external standards were necessary for analyte quantification in the cortex homogenate, and all tests performed for method validation and yielded results in accordance with limits indicated in official guidelines for applicability in laboratory trials. […]

[3] = test system: isolated rat cortexes, kynurenic acid (KA); test: K+ 60 mM neurotoxicity paradigm, kynurenic acid level; conditions: for effect on K+ 60 mM-induced reduction in kynurenic acid (KA) level: CBD 1000 nM, CBG 1 nM
Method: as §1, §2
The KA quantitative determination was performed by using a liquid chromatograph (MOD. 1525, Waters Corporation, Milford MA, USA) equipped with a fluorimetric detector (MOD. 2475, Waters Corporation), a C18 reversed-phase column (AcclaimTM 120, 3 µm, 2.1 × 100 mm, Dionex Corporation, Sunnyvale, CA, USA), and an online degasser (Biotech 4-CH degasi compact, LabService, Anzola Emilia, Italy). The separation was conducted in isocratic conditions and the mobile phase consisted of 250 mM zinc acetate, 50 mM sodium acetate, and 3% acetonitrile (pH adjusted to 6.2 with glacial acetic acid), using a flow rate of 1.0 mL/min. In the eluate, the KA was identified and measured fluorimetrically (excitation: 344 nm; emission: 398 nm).

[4] = test system: calcium/calmodulin-dependent protein kinase type II subunit alpha (CAMK2A); test: Untargeted proteomic analysis of cortexes, CAMK2A; parameters: species or system rat; conditions: CBD 1000 nM, CBG 1 nM
Method: as §1
as §2, with “The analyses were conducted in triplicate and in independent facilities with blind modality.” left out
After protein quantification, a volume corresponding to 50 μg of proteins was loaded onto a Nanosep 10-kDa-cutoff filter (Pall Corporation, Michigan, USA) and digested according to the protocol we routinely use in our laboratory, adapted from Distler et al. Briefly, the sample was washed twice with 200 μL urea buffer (8M urea, 100 mM Tris pH 8.5 in milliQ water) to remove the detergents present in the lysis buffer. […]

T1 sequence (O42275 24-633): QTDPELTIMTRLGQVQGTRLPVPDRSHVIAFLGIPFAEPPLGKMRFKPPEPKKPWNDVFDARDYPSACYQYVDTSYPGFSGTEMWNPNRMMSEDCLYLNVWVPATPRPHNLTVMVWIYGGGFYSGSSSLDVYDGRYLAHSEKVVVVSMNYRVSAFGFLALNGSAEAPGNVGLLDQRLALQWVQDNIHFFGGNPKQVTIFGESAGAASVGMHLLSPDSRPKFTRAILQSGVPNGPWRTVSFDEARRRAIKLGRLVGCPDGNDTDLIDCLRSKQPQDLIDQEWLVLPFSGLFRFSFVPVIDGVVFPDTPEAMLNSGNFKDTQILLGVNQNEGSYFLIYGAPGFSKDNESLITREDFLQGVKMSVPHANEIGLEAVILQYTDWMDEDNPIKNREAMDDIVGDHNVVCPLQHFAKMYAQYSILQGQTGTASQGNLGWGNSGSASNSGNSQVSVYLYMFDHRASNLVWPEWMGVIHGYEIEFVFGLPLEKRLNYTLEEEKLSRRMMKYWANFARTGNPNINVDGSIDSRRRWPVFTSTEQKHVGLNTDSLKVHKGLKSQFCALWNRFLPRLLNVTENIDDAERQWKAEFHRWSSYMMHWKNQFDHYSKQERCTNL

Compound	IC50 [1]	effect on K+ 60 mM-induced increase in 3-HK level [2]	effect on K+ 60 mM-induced reduction in kynurenic acid (KA) level [3]	effect on K+ 60 mM-induced reduction in CAMK2A level [4]	3-HK level ([2]; basal conditions only)	KA level ([3]; basal conditions only)
C=C(C)[C@@H]1CCC(C)=C[C@H]1c1c(O)cc(CCCCC)cc1O [CBD, Cannabidiol]	1040 ± 20 µM	successful in blunting	successful in blunting	blocking the downregulation	–	–
CCCCCc1cc(O)c(C/C=C(\C)CCC=C(C)C)c(O)c1 [CBG, cannabigerol]	1150 ± 30 µM	completely ineffective	completely ineffective	completely ineffective	reduce 3-HK	increase KA levels
